# Measured values: US5571836A, “Viral attachment inhibitors” (priority 1995, dated 1996)
# Structures can show the parent of a compound that is named as a salt.
# How the values were obtained:
# [1] = test system: influenza virus USSR/90/77; assay: Fetuin binding inhibition assay, influenza virus USSR/90/77; settings: for A^i (absorbance): 492 nm
# [2] = test system: influenza virus Chile/1/83; assay: Fetuin binding inhibition assay, influenza virus Chile/1/83; settings: for A^i (absorbance): 492 nm
# [3] = test system: influenza virus Taiwan/1/86; assay: Fetuin binding inhibition assay, influenza virus Taiwan/1/86; settings: for A^i (absorbance): 492 nm
# influenza virus X-31 = assay: Fetuin binding inhibition assay, influenza virus X-31; settings: for A^i (absorbance): 492 nm
# [4] = test system: influenza virus England/321/77; assay: Fetuin binding inhibition assay, influenza virus England/321/77; settings: for A^i (absorbance): 492 nm
# [5] = test system: influenza virus USSR/2/85; assay: Fetuin binding inhibition assay, influenza virus USSR/2/85; settings: for A^i (absorbance): 492 nm
# [6] = test system: influenza virus USSR/3/85; assay: Fetuin binding inhibition assay, influenza virus USSR/3/85; settings: for A^i (absorbance): 492 nm
# [7] = test system: influenza virus B/Hong Kong/8/73; assay: Fetuin binding inhibition assay, influenza virus B/Hong Kong/8/73; settings: for A^i (absorbance): 492 nm
# [8] = test system: influenza virus B/Singapore/222/79; assay: Fetuin binding inhibition assay, influenza virus B/Singapore/222/79; settings: for A^i (absorbance): 492 nm
# [9] = test system: influenza virus B/USSR/100/83; assay: Fetuin binding inhibition assay, influenza virus B/USSR/100/83; settings: for A^i (absorbance): 492 nm
# [10] = test system: influenza virus Port Chalmers/1/73; assay: Fetuin binding inhibition assay, influenza virus Port Chalmers/1/73; settings: for A^i (absorbance): 492 nm
# [11] = test system: influenza virus Victoria/3/75; assay: Fetuin binding inhibition assay, influenza virus Victoria/3/75; settings: for A^i (absorbance): 492 nm
# [12] = test system: influenza virus Texas/1/77; assay: Fetuin binding inhibition assay, influenza virus Texas/1/77; settings: for A^i (absorbance): 492 nm
# [13] = test system: influenza virus Philippines/2/82; assay: Fetuin binding inhibition assay, influenza virus Philippines/2/82; settings: for A^i (absorbance): 492 nm
# [14] = assay type: physicochemical; settings: control solutions without enzyme
# Method: Compound (IV) was incubated at 37° C. with Vibrio cholerae neuraminidase (450 U/ml) in 0.1M acetate buffer, pH 5.6, containing 0.9% NaCi and 0.1% CaCl2. Neuraminidase cleavage was determined on aliquots taken at intervals by TLC analysis (Merck silica gel plates in propanol/ethanol/25% aqueous ammonia, 2:2:1). Spots were developed by charring the plates with 3% H3 PO4 at 150° C. and quantitated densitometrically. The results are depicted in The FIGURE (v).
# influenza viruses = assay: Fetuin binding inhibition assay, influenza virus strains overall
smiles,measurement,setting,value
"CC(=S)NC1C(O)CC(OCc2ccccc2)(C(=O)O)OC1C(O)C(O)CO [IV, benzyl 3,5-dideoxy5-thioacetamido-α-D-glycero-D-galacto-nonulopyranosidonicacid (sodium salt)]",-lgKd(i),[1]; 1.28 mM sialoside,3.2
same,A^i (absorbance),[1]; 1.28 mM sialoside,0.41
same,-lgKd(i),[1]; 2.56 mM sialoside,3.2
same,A^i (absorbance),[1]; 2.56 mM sialoside,0.23
same,-lgKd(i),[1]; .08 mM sialoside,3.1
same,A^i (absorbance),[1]; .08 mM sialoside,0.94
same,-lgKd(i),[1]; .16 mM sialoside,3.2
same,A^i (absorbance),[1]; .16 mM sialoside,0.84
same,-lgKd(i),[1]; .32 mM sialoside,3.2
same,A^i (absorbance),[1]; .32 mM sialoside,0.73
same,-lgKd(i),[1]; .64 mM sialoside,3.2
same,A^i (absorbance),[1]; .64 mM sialoside,0.6
same,-lgKd ± SD,[1]; mean over concentrations,3.1 ± 0.09
same,-lgKd(i),[2]; 1.28 mM sialoside,3.6
same,A^i (absorbance),[2]; 1.28 mM sialoside,0.36
same,-lgKd(i),[2]; 2.56 mM sialoside,3.5
same,A^i (absorbance),[2]; 2.56 mM sialoside,0.25
same,-lgKd(i),[2]; .08 mM sialoside,3.5
same,A^i (absorbance),[2]; .08 mM sialoside,1.27
same,-lgKd(i),[2]; .16 mM sialoside,3.5
same,A^i (absorbance),[2]; .16 mM sialoside,1.14
same,-lgKd(i),[2]; .32 mM sialoside,3.5
same,A^i (absorbance),[2]; .32 mM sialoside,0.89
same,-lgKd(i),[2]; .64 mM sialoside,3.5
same,A^i (absorbance),[2]; .64 mM sialoside,0.63
same,-lgKd ± SD,[2]; mean over concentrations,3.5 ± 0.04
same,-lgKd(i),[3]; 1.28 mM sialoside,3.2
same,A^i (absorbance),[3]; 1.28 mM sialoside,0.33
same,-lgKd(i),[3]; 2.56 mM sialoside,3.2
same,A^i (absorbance),[3]; 2.56 mM sialoside,0.21
same,-lgKd(i),[3]; .08 mM sialoside,3.3
same,A^i (absorbance),[3]; .08 mM sialoside,0.68
same,-lgKd(i),[3]; .16 mM sialoside,3.3
same,A^i (absorbance),[3]; .16 mM sialoside,0.62
same,-lgKd(i),[3]; .32 mM sialoside,3.2
same,A^i (absorbance),[3]; .32 mM sialoside,0.55
same,-lgKd(i),[3]; .64 mM sialoside,3.1
same,A^i (absorbance),[3]; .64 mM sialoside,0.47
same,-lgKd ± SD,[3]; mean over concentrations,3.2 ± 0.08
same,-lgKd(i),influenza virus X-31; 1.28 mM sialoside,3.3
same,A^i (absorbance),influenza virus X-31; 1.28 mM sialoside,0.34
same,-lgKd(i),influenza virus X-31; 2.56 mM sialoside,3.2
same,A^i (absorbance),influenza virus X-31; 2.56 mM sialoside,0.24
same,-lgKd(i),influenza virus X-31; .08 mM sialoside,3.2
same,A^i (absorbance),influenza virus X-31; .08 mM sialoside,0.86
same,-lgKd(i),influenza virus X-31; .16 mM sialoside,3.4
same,A^i (absorbance),influenza virus X-31; .16 mM sialoside,0.72
same,-lgKd(i),influenza virus X-31; .32 mM sialoside,3.3
same,A^i (absorbance),influenza virus X-31; .32 mM sialoside,0.65
same,-lgKd(i),influenza virus X-31; .64 mM sialoside,3.3
same,A^i (absorbance),influenza virus X-31; .64 mM sialoside,0.51
same,-lgKd ± SD,influenza virus X-31; mean over concentrations,3.3 ± 0.08
same,-lgKd(i),[4]; 1.28 mM sialoside,3.7
same,A^i (absorbance),[4]; 1.28 mM sialoside,0.21
same,-lgKd(i),[4]; 2.56 mM sialoside,3.5
same,A^i (absorbance),[4]; 2.56 mM sialoside,0.16
same,-lgKd(i),[4]; .08 mM sialoside,3.4
same,A^i (absorbance),[4]; .08 mM sialoside,0.98
same,-lgKd(i),[4]; .16 mM sialoside,3.7
same,A^i (absorbance),[4]; .16 mM sialoside,0.73
same,-lgKd(i),[4]; .32 mM sialoside,3.7
same,A^i (absorbance),[4]; .32 mM sialoside,0.56
same,-lgKd(i),[4]; .64 mM sialoside,3.7
same,A^i (absorbance),[4]; .64 mM sialoside,0.37
same,-lgKd ± SD,[4]; mean over concentrations,3.6 ± 0.13
same,-lgKd(i),[5]; 1.28 mM sialoside,2.6
same,A^i (absorbance),[5]; 1.28 mM sialoside,0.23
same,-lgKd(i),[5]; 2.56 mM sialoside,2.5
same,A^i (absorbance),[5]; 2.56 mM sialoside,0.21
same,-lgKd(i),[5]; .64 mM sialoside,2.6
same,A^i (absorbance),[5]; .64 mM sialoside,0.28
same,-lgKd ± SD,[5]; mean over concentrations,2.6 ± 0.06
same,-lgKd(i),[6]; 1.28 mM sialoside,3.6
same,A^i (absorbance),[6]; 1.28 mM sialoside,0.32
same,-lgKd(i),[6]; 2.56 mM sialoside,3.8
same,A^i (absorbance),[6]; 2.56 mM sialoside,0.12
same,-lgKd(i),[6]; .08 mM sialoside,3.8
same,A^i (absorbance),[6]; .08 mM sialoside,1.05
same,-lgKd(i),[6]; .16 mM sialoside,3.8
same,A^i (absorbance),[6]; .16 mM sialoside,0.81
same,-lgKd(i),[6]; .32 mM sialoside,3.8
same,A^i (absorbance),[6]; .32 mM sialoside,0.62
same,-lgKd(i),[6]; .64 mM sialoside,3.7
same,A^i (absorbance),[6]; .64 mM sialoside,0.43
same,-lgKd ± SD,[6]; mean over concentrations,3.8 ± 0.08
same,-lgKd(i),[7]; 1.28 mM sialoside,2.6
same,A^i (absorbance),[7]; 1.28 mM sialoside,0.46
same,-lgKd(i),[7]; 2.56 mM sialoside,2.7
same,A^i (absorbance),[7]; 2.56 mM sialoside,0.32
same,-lgKd(i),[7]; .64 mM sialoside,2.5
same,A^i (absorbance),[7]; .64 mM sialoside,0.54
same,-lgKd ± SD,[7]; mean over concentrations,2.6 ± 0.1
same,-lgKd(i),[8]; 1.28 mM sialoside,3.6
same,A^i (absorbance),[8]; 1.28 mM sialoside,0.18
same,-lgKd(i),[8]; 2.56 mM sialoside,3.7
same,A^i (absorbance),[8]; 2.56 mM sialoside,0.09
same,-lgKd(i),[8]; .32 mM sialoside,3.2
same,A^i (absorbance),[8]; .32 mM sialoside,0.56
same,-lgKd(i),[8]; .64 mM sialoside,3.5
same,A^i (absorbance),[8]; .64 mM sialoside,0.35
same,-lgKd ± SD,[8]; mean over concentrations,3.5 ± 0.2
same,-lgKd(i),[9]; 1.28 mM sialoside,3.7
same,A^i (absorbance),[9]; 1.28 mM sialoside,0.15
same,-lgKd(i),[9]; 2.56 mM sialoside,3.7
same,A^i (absorbance),[9]; 2.56 mM sialoside,0.08
same,-lgKd(i),[9]; .16 mM sialoside,3.3
same,A^i (absorbance),[9]; .16 mM sialoside,0.52
same,-lgKd(i),[9]; .32 mM sialoside,3.5
same,A^i (absorbance),[9]; .32 mM sialoside,0.40
same,-lgKd(i),[9]; .64 mM sialoside,3.7
same,A^i (absorbance),[9]; .64 mM sialoside,0.25
same,-lgKd ± SD,[9]; mean over concentrations,3.6 ± 0.2
same,-lgKd(i),[10]; 1.60 mM sialoside,3.2
same,A^i (absorbance),[10]; 1.60 mM sialoside,0.25
same,-lgKd(i),[10]; .05 mM sialoside,3.2
same,A^i (absorbance),[10]; .05 mM sialoside,0.55
same,-lgKd(i),[10]; .10 mM sialoside,3.4
same,A^i (absorbance),[10]; .10 mM sialoside,0.51
same,-lgKd(i),[10]; .20 mM sialoside,3.4
same,A^i (absorbance),[10]; .20 mM sialoside,0.47
same,-lgKd(i),[10]; .40 mM sialoside,3.3
same,A^i (absorbance),[10]; .40 mM sialoside,0.42
same,-lgKd(i),[10]; .80 mM sialoside,3.1
same,A^i (absorbance),[10]; .80 mM sialoside,0.40
same,-lgKd ± SD,[10]; mean over concentrations,3.3 ± 0.1
same,-lgKd(i),[11]; 1.60 mM sialoside,3.3
same,A^i (absorbance),[11]; 1.60 mM sialoside,0.35
same,-lgKd(i),[11]; .05 mM sialoside,3.3
same,A^i (absorbance),[11]; .05 mM sialoside,0.71
same,-lgKd(i),[11]; .10 mM sialoside,3.3
same,A^i (absorbance),[11]; .10 mM sialoside,0.69
same,-lgKd(i),[11]; .20 mM sialoside,3.5
same,A^i (absorbance),[11]; .20 mM sialoside,0.61
same,-lgKd(i),[11]; .40 mM sialoside,3.4
same,A^i (absorbance),[11]; .40 mM sialoside,0.56
same,-lgKd(i),[11]; .80 mM sialoside,3.4
same,A^i (absorbance),[11]; .80 mM sialoside,0.46
same,-lgKd ± SD,[11]; mean over concentrations,3.4 ± 0.08
same,-lgKd(i),[12]; 1.60 mM sialoside,4.0
same,A^i (absorbance),[12]; 1.60 mM sialoside,0.35
same,-lgKd(i),[12]; .05 mM sialoside,3.8
same,A^i (absorbance),[12]; .05 mM sialoside,1.0
same,-lgKd(i),[12]; .10 mM sialoside,4.1
same,A^i (absorbance),[12]; .10 mM sialoside,0.9
same,-lgKd(i),[12]; .20 mM sialoside,4.0
same,A^i (absorbance),[12]; .20 mM sialoside,0.83
same,-lgKd(i),[12]; .40 mM sialoside,4.0
same,A^i (absorbance),[12]; .40 mM sialoside,0.70
same,-lgKd(i),[12]; .80 mM sialoside,3.9
same,A^i (absorbance),[12]; .80 mM sialoside,0.55
same,-lgKd ± SD,[12]; mean over concentrations,4.0 ± 0.1
same,-lgKd(i),[13]; 1.60 mM sialoside,4.1
same,A^i (absorbance),[13]; 1.60 mM sialoside,0.20
same,-lgKd(i),[13]; .05 mM sialoside,4.0
same,A^i (absorbance),[13]; .05 mM sialoside,0.75
same,-lgKd(i),[13]; .10 mM sialoside,4.4
same,A^i (absorbance),[13]; .10 mM sialoside,0.59
same,-lgKd(i),[13]; .20 mM sialoside,4.1
same,A^i (absorbance),[13]; .20 mM sialoside,0.56
same,-lgKd(i),[13]; .40 mM sialoside,4.1
same,A^i (absorbance),[13]; .40 mM sialoside,0.43
same,-lgKd(i),[13]; .80 mM sialoside,4.1
same,A^i (absorbance),[13]; .80 mM sialoside,0.32
same,-lgKd ± SD,[13]; mean over concentrations,4.1
same,Stability in the absence of enzyme,[14],at least 23 hours
same,Inhibition of virus strains,influenza viruses,inhibits some virus strains better than its analog
